# Where “and” joins values, the source holds several entries; their conditions need not be identical. Identical values can stand only once. Non-standard residues stand in square brackets, D forms with d. Residues, ends and D or L forms follow the SMILES beside them. ξ: configuration not given here. *: point of attachment. ξF = NC(Cc1ccccc1)C(=O)O; Cbz = O=C(OCc1ccccc1)*
# What was measured:
# [1] = target: T1, human calpain I (Homo sapiens, UniProt P07384); experiment: Effects on human calpain I (acellular, Suc-Leu-Tyr-AMC fluorescence); format: biochemical; details: enzyme purified from human erythrocytes; 1 h at 25°C; read-out: Inhibition human calpain I, acellular [IC50 (nM)]
# T1 construct: enzyme purified from human erythrocytes; purchased Calbiochem 208713; host or cells: human erythrocytes (native tissue source)
# T1 sequence (P07384 1-714): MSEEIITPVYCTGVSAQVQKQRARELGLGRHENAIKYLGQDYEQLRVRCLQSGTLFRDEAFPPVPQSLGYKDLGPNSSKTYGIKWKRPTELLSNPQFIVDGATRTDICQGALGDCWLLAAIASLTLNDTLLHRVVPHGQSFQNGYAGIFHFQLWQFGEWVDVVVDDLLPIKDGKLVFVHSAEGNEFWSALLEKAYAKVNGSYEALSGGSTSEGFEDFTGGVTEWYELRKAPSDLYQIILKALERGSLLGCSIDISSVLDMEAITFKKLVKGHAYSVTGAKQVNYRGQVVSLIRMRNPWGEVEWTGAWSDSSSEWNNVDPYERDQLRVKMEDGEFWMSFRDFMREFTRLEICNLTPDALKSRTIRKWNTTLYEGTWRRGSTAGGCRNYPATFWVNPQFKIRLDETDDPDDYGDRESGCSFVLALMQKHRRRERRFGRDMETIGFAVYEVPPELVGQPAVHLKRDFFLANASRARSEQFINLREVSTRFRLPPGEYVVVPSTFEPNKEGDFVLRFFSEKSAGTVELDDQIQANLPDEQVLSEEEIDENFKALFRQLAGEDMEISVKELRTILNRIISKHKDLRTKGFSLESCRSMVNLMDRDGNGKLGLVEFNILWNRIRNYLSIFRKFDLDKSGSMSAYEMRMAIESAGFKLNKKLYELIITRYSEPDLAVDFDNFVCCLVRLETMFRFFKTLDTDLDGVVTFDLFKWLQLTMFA
# T1 sequence (P04632 1-268 partner): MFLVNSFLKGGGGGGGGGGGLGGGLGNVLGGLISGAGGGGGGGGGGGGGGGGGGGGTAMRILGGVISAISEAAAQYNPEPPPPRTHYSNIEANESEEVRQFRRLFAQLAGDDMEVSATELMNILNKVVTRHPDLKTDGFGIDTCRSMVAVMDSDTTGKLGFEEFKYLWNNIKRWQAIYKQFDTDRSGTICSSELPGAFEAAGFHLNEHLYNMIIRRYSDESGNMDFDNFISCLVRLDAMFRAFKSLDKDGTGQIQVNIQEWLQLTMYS
# Method: The test consists of measuring the activity of the enzyme (enzyme purified from human erythrocytes) which is incubated in a buffer in the presence of a peptide substrate coupled with a fluorochrome (amino-methylcourmarin, AMC) and calcium. The enzyme activated by the calcium, proteolyses the substrate and releases the AMC fragment. The AMC released fluoresces at 460 nm under excitation at 380 nm. The activity of the enzyme is therefore proportional to the quantity of fluorescence i.e. of free AMC fragment. The fluorescence (380/460 nm) is measured using a multi-well fluorimeter (Victor 2, Wallac).
# Assay is carried out in 96-well microplates with transparent bottoms and black walls in which 10 μl per well of substance to be tested in DMSO 10%, 45 μl of reaction mixture containing the human calpain I at 2.2 U/ml (Calbiochem, ref: 208713), the Suc Leu Tyr-AMC substrate (Bachem, ref: I-1355) at 1.1 mM in a buffer (Tris-HCl 110 mM; NaCl 110 mM; EDTA 2.2 mM; EGTA 2.2 mM; mercaptoethanol 1.1 mM) are distributed. The reaction is initiated by adding 45 μl of CaCl2 22mM. To determine the background noise, control wells without calcium are added to the plate (10 μL DMSO 10%+45 μL of buffer with the enzyme and the susbtrate +45 μL H2O). In order to determine the total activity of the enzyme control wells containing no product are added to the plate (10 μL DMSO 10%+45 μL of buffer with the enzyme and the substrate +45 μL of CaCl2 22 mM ). Each concentration of the products (0.1 nM to 10 μM) is tested in duplicate. The plates are shaken and incubation takes place for one hour at 25° C. in darkness. The fluorescence is read at 380/460 nm using the Victor.
# [2] = tested on: rat glial cells C6; experiment: Protection from necrosis induced by maitotoxin, C6 (wst-1 viability); format: cell-based
# Method: Human neuroblastomas SHSY5Y and rat glial cells C6 are seeded at 25 000 cells per well in 96-well plates in DMEM 10% FBS for 24 hours. The L6 rat myoblasts are seeded at 1000 cells per well in DMEM 10% FBS on 96-well microplates coated beforehand with gelatin 0.5% PBS. After culture for 3 days the medium is removed and replaced with a differentiation medium (DMEM+10 μg/ml of insulin+100 μg/ml of transferrin). 50 μl of product A plus 50 μl of solvent or 50 μl of product B are placed in the wells. After incubation for 1 hour at 37° C. under an atmosphere of 5% CO2, 10 μl of maitotoxin is added in order to obtain a final concentration of 0.1 nM to 1 nM (according to the cell type). After incubation for 3 hours at 37° C. under an atmosphere of 5% CO2, the cell viability is determined by adding 10 μl of tetrazolium salts (wst-1, Roche, ref: 1644807). The tetrazolium salts are cleaved into formazan molecules by mitochondrial dehydrogenases. The quantity of formazan formed is directly correlated to the number of metabolically active cells in the culture. Measurement of the absorbance of the formazan is carried out using a multiwell photometer at a wavelength of 420 nm against a reference wavelength of 620 nm.
# The theoretical effect was obtained by multiplying the percentage of dead cells in the presence of product A by the percentage of dead cells in the presence of product B (Table 3). The percentage protection against cell death induced by MTX being the percentage of cells kept alive in the presence of the product or products.
# In the light of the previous results, the combination of Example 1 with product A and product B at a rate of 100 μM of each of the products is carried out on human neuroblastomas (SHSY5Y; (Table 5A) and on glial cells with 25 μM of product A and 50 μM of product B (C6; Table 5B) on a larger number of cases.
# [3] = tested on: lipidic peroxidation of rat cerebral cortex homogenate; experiment: In vitro lipidic peroxidation (Fenton reaction, MDA) in rat cerebral cortex membranes; format: biochemical; details: iron/ascorbate, read-out: Inhibition of lipidic peroxidation [IC50 (μM)]
# Method: The test consists of inducing lipidic peroxidation by Fenton reactions in the presence of iron and ascorbate. The degree of lipidic peroxidation is determined by the concentration of malonaldehyde (MDA). The MDA produced by the lipidic peroxidation of unsaturated fatty acids is a good indicator of lipidic peroxidation (Esterbauer et al, 1990; Meth. Enzymol. 186: 407421). For this colorimetric test, the condensation of a molecule of MDA with two molecules of chromogenic reagent R (N-methyl-2-phenylindole) produces a stable chromophore the maximum absorbance wavelength of which is equal to […].
# The membranes are prepared from the cortexes of male Sprague Dawley rats weighing 200 to 250 g. The animals are sacrificed by decapitation and the brains are immediately removed and rinsed in cold Tris HCl 20 mM pH 7.4. The cortexes, after dissection and removal of the white matter, are then ground with the Thomas potter, in Tris HCl buffer 20 mM pH 7.4 at 4° C. The homogenate obtained is centrifuged at low speed in order to eliminate the large debris (515 g for 15 minutes at 4° C.). The supernatant is then distributed into polycarbonate centrifugation tubes and centrifuged at 51500 g for 25 min at 4° C. The membrane pellets are kept at −80° C.
# On the day of the experiment, the frozen membranes are resuspended at a concentration of 0.5 equivalent grams of cortex per 5 ml of Tris HCl buffer 20 mM pH 7.4 and homogeneized using a combitips. In 96-well “deep-well” 1 ml polypropylene plates with a conical base, 5 μl per well of the product to be tested or of solvent is mixed with 40 μl of rat cerebral cortex homogenate by centrifugation (800 rpm). The plates are covered with a self-adhesive aluminium sheet and incubated at 37° C. for 15 minutes under agitation. […]
# The membranes and the supernatants are separated by filtration under vacuum on a 96-well plate with a multiscreen filtering base NA (Millipore, ref: MANANLY 50). The absorbance of the supernatants recovered in the 96-well plates is read using a photometer.
# [4] = tested on: calpain activity in rat glial cells (C6); experiment: In situ calpain activity in rat glial cells C6 stimulated by maitotoxin; format: cell-based; details: read-out: Inhibition human calpain I, in situ (C6) [IC50 (nM)]; n = 3; maitotoxin 1 nM; 1 h 30 min
# Method: Human neuroblastomas SHSY5Y and rat glial cells C6 are seeded at a rate of 50,000 and 25,000 cells respectively per well on 96-well plates in DMEM 10% FBS. The next day, the cells which have adhered are washed 3 times in DMEM medium without serum and 40 mM Hepes. 100 microlitres of product B is placed in the wells. After incubation for 1 hour at 37° C. under an atmosphere of 5% CO2, 10 μl containing the fluorescent substrate of calpain (Suc-Leu-Tyr-AMC) and maitotoxin (Sigma, ref: M-9159), in order to obtain a final concentration in the well of 100 μM and of 1 nM respectively are added.
# In order to determine the total activity of the cell enzyme, wells containing no product are added to the plate (100 μL DMSO 100th plus 10 μl of MTX and substrate). The background noise is determined by adding control wells with no MTX. Each concentration of the products (0.3 μM to 200 μM for the SHSY5Y's and 0.01 μM to 100 μM for the C6's) is tested in triplicate. The plates are shaken, the fluorescence is read at 380/460 nm using the Victor at T zero. Incubation takes place for four hours for the SHSY5Y and 1 hour 30 minutes for the C6 cells at 30° C. in darkness.
# [5] = single product at 100 μM, n = 1
smiles,measurement,setting,value
"CC(=O)N[C@@H](CC(C)C)C(=O)N[C@@H](CC(C)C)C(=O)N[C@H](C=O)CCCNC(=N)N [LEUPEPTIN, leupeptin]",IC50,[1],73 nM
"O=C(O)C(S)=Cc1ccc(I)cc1 [EXAMPLE 4 B, 3-(4-iodophenyl)-2-mercapto-2-propenoic acid]",Protection from necrosis induced by MTX on C6,[2]; single product at 25 μM,0.69%
same,Protection from necrosis induced by MTX on C6,[2]; [5],0.36% and 2.75%
same,IC50,[1],5140 nM
"Oc1ccc(Nc2ccccc2)cc1 [EXAMPLE 5 A, 4-hydroxydiphenylamine]",IC50,[3],0.093 µM
same,Protection from necrosis induced by MTX on C6,[2]; [5],17.90%
same,Protection from necrosis induced by MTX on C6,"[2]; single product at 100 μM, n = 1, listed as EXAMPLE 6 A",9.43%
"CC(C)C[C@H](NC(=O)OCc1ccccc1)C(=O)NC(C=O)Cc1ccccc1 (stereo partly drawn) [EXAMPLE 2 B, benzyl (1S)-1-{[(1-benzyl-2-oxoethyl)amino]carbonyl)-3-methylbutylcarbamate] (Cbz-Leu-[ξF]-aldehyde)",Protection from necrosis induced by MTX on C6,"[2]; single product at 50 μM, n = 3 for Example 2, else n = 1",12.05 ± 2.82%
same,Protection from necrosis induced by MTX on C6,"[2]; single product at 50 μM, n = 3 for Example 2, else n = 1, listed as Z-Leu-Phe-H",inactive
same,IC50,[1],8 nM
same,IC50,[4],2200 ± 290 nM
